Data from PMC11085077, “Designing Antitrypanosomal and Antileishmanial BODIPY Derivatives: A Computational and In Vitro Assessment” (Molecules, 2024).

How the values were obtained:
T. brucei BSF = assay: Antitrypanosomal activity, alamarBlue assay; format: cell-based, Trypanosoma brucei; conditions: for Selectivity Index (SI) T. brucei: SI = IC50 MRC-5/IC50 parasite; for IC50: Trypanosoma brucei, bloodstream form, 72 h incubation, alamarBlue, error reported as σ
Description: The in vitro antitrypanosomal and antileishmanial activity of the BODIPY derivatives were evaluated on the bloodstream form (BSF) of T. brucei and the promastigote form of L. major parasites. The toxicity of the compounds was determined after 72 h of incubation using the alamarBlue assay (for T. brucei) and the MTT assay (for L. major). The cytotoxicity of the compounds on a healthy human cell line (human lung fibroblast, MRC-5) was also determined after 72 h of incubation using the alamarBlue assay. The data were expressed as the half maximal inhibitory concentration (IC50). The selectivity index (SI) of each derivative was calculated by dividing the IC50 of MRC-5 cells into the IC50 of T. brucei or L. major.
T. brucei (Lister 427, antigenic type MiTat 1.2, clone 221a, bloodstream forms, “single marker” S427 (S16)) were cultured at 37 °C, 5% CO2 in HMI-9 medium supplemented with 10% heat-inactivated fetal bovine serum (hiFBS, Invitrogen, Carlsbad, CA, USA), as previously described.
The antitrypanosomal activity of the BODIPY derivatives was determined by the alamarBlue® assay (ThermoFisher Scientific, Waltham, MA, USA). The stock solutions of the compounds were prepared in DMSO and the final DMSO percentage in each well was adjusted to be less than 1%. A total of 2 × 10^4 parasites per mL were incubated at 37 °C, 5% CO2 in 96-well plates (50 μL/well) alone or in the presence of an increasing concentration of compounds for 72 h. A total of 20 μL of resazurin solution (110 ng/mL) was then added to each well, and the parasites were incubated for 4 h at 37 °C. Finally, cells were lysed with 50 μL per well of SDS 3%. The plate was incubated at 37 °C for an extra hour and then, fluorescence intensity was measured with an Infinite F200 plate reader (Tecan Austria, GmbH, Grödig, Austria), exciting at 550 nm and recording the emission at 590 nm. The results are expressed as the concentration of a compound that reduces cell growth by 50% versus untreated control cells (IC50). Data are presented as the average of at least three independent measurements, all conducted in triplicate conditions.

[1] = system: MRC-5 cell line (human lung fibroblast); assay: Cytotoxicity, alamarBlue assay; format: cell-based; conditions: MRC5, healthy human lung fibroblasts, 72 h incubation, error reported as σ
Description: The in vitro antitrypanosomal and antileishmanial activity of the BODIPY derivatives were evaluated on the bloodstream form (BSF) of T. brucei and the promastigote form of L. major parasites. The toxicity of the compounds was determined after 72 h of incubation using the alamarBlue assay (for T. brucei) and the MTT assay (for L. major). The cytotoxicity of the compounds on a healthy human cell line (human lung fibroblast, MRC-5) was also determined after 72 h of incubation using the alamarBlue assay. The data were expressed as the half maximal inhibitory concentration (IC50). The selectivity index (SI) of each derivative was calculated by dividing the IC50 of MRC-5 cells into the IC50 of T. brucei or L. major. MRC-5 cell line (human lung fibroblast) was grown in a monolayer at 37 °C, 5% CO2 in DMEM medium (1 g/L glucose) supplemented with 10% hiFBS, 100 U/mL penicillin, […] and 2 mM L-glutamine. Cytotoxicity was measured in MRC-5 through alamarBlue® assay (ThermoFisher Scientific). The stock solutions of the compounds were prepared in DMSO and the final DMSO percentage in each well was adjusted to be less than 1%. A total of 5 × 10^3 cells per mL were seeded in 96-well plates (100 μL/well) with 24 h of incubation time before compound addition at 37 °C, 5% CO2. Then, the compounds were added at increasing concentrations (from 0 to 100 μM) and the plates were incubated for 72 h. A total of 20 μL of resazurin solution (110 ng/mL) was added to each well and cells were incubated for 4 h. Then, cells were lysed with 50 μL/well of 3% SDS. The plate was incubated at 37 °C for an extra hour and then, the fluorescence intensity was measured at the Infinite F200 plate reader (TECAN Austria, GmbH), exciting at 550 nm and recording the emission at 590 nm. The results are expressed as the concentration of a compound that reduces cell growth by 50% versus untreated control cells (IC50). Data are presented as the average of at least three independent measurements, all conducted in triplicate conditions.

L. major promastigotes = assay: Antileishmanial activity, MTT-based assay; format: cell-based, Leishmania major; conditions: for IC50: Leishmania major, promastigotes, 72 h incubation, MTT, error reported as σ; for Selectivity Index (SI) L. major: SI = IC50 MRC-5/IC50 parasite
Description: The in vitro antitrypanosomal and antileishmanial activity of the BODIPY derivatives were evaluated on the bloodstream form (BSF) of T. brucei and the promastigote form of L. major parasites. The toxicity of the compounds was determined after 72 h of incubation using the alamarBlue assay (for T. brucei) and the MTT assay (for L. major). The cytotoxicity of the compounds on a healthy human cell line (human lung fibroblast, MRC-5) was also determined after 72 h of incubation using the alamarBlue assay. The data were expressed as the half maximal inhibitory concentration (IC50). The selectivity index (SI) of each derivative was calculated by dividing the IC50 of MRC-5 cells into the IC50 of T. brucei or L. major. L. major (MHOM/IL/80/Friedlin) promastigotes were cultured at 28 °C, 5% CO2 in modified RPMI-1640 medium (Invitrogen, Carlsbad, CA, USA) supplemented with 10% hiFBS [49]. Parasites were maintained in culture in their […] growth phase (below 2 million parasites per mL for T. brucei and 10 million parasites per mL for L. major). The antileishmanial activity of the BODIPY derivatives was assessed using an MTT-based assay (Sigma-Aldrich, St. Louis, MO, USA). The stock solutions of the compounds were prepared in DMSO and the final DMSO percentage in each well was adjusted to be less than 1%. A total of 4 × 10^6 parasites per mL were incubated at 28 °C in 96-well plates (50 μL/well) alone or in the presence of an increasing concentration of compounds DMSO for 72 h. A total of 10 μL of MTT (5 mg/mL) were added to each well and parasites were incubated for 4 h at 28 °C. Finally, cells were lysed with 50 μL/well of 20% SDS. The plate was incubated at 37 °C for an extra hour and then, absorbance was measured at the Infinite F200 plate reader (TECAN Austria, GmbH, Grödig, Austria) at a wavelength of 540 nm. The IC50 was calculated as described above. Data are presented as the average of at least three independent measurements, all conducted in triplicate conditions.

[2] = Solubility in water (statement); format: physicochemical
Trypanosoma brucei = conditions: read-out: inhibitory concentration against T. brucei; cited from earlier work
Leishmania major = conditions: read-out: inhibitory concentration against L. major; cited from earlier work

SMILES	Selectivity Index (SI) T. brucei (T. brucei BSF)	IC50 (T. brucei BSF) [µM]	IC50 [1] [µM]	IC50 (L. major promastigotes) [µM]	Selectivity Index (SI) L. major (L. major promastigotes)	solubility in water (in words) [2]	IC50 (Trypanosoma brucei) [µM]	IC50 (Leishmania major) [µM]
CC1=C(C=O)C(C)=[N+]2C1=C(c1ccc(N(c3ccccc3)c3ccc(C=O)cc3)cc1)c1c(C)cc(C)n1[B-]2(F)F [Compound 3d]	2.28	38.3 ± 0.93	87.1 ± 3.28	> 100	<0.87	–	–	–
CC1=C(I)C(C)=[N+]2C1=C(c1c3ccccc3cc3ccccc13)c1c(C)c(I)c(C)n1[B-]2(F)F [Compound 4c]	1.72	28.1 ± 1.77	48.2 ± 1.13	> 50	<0.96	low solubility in water	–	–
CN(Cc1cnc2nc(N)nc(N)c2n1)c1ccc(C(=O)N[C@@H](CCC(=O)O)C(=O)O)cc1 [methotrexate]	–	–	–	–	–	–	2.7	3.6
